How the values were obtained:
[1] = tested on: JR-FL gp41 NT 1-5 Env-pseudotyped virus; assay type: cell-based, HIV-1 JR-FL; conditions: U87.CD4.CCR5 cells; in nM for T-20
Procedure: (§1) Pseudotyped virions bearing JR-FL envelope glycoproteins (WT and mutant) were produced by cotransfection of selected env clones with a luciferase-expressing reporter vector, pNL4-3Env(−)Luc(+), as described above. To measure infectivity, luciferase-expressing Env-pseudotyped viruses (50 μl) containing normalized amounts of p24 antigen were added to 3×10^3 U87.CD4.CCR5 cells/well. U87.CD4.CXCR4 cells were used as a negative control. After 4 days, th cells were lysed with 75 μl of 1× Glo lysis buffer (Promega, Calif.) for subsequent quantification of luciferase, which was expressed by the Env-pseudotyped virions that contain the gene for firefly luciferase inserted into the nef gene of HIV-1, using the Bright-Glo™ Luciferase Assay Substrate (Promega, Calif.) and a VICTOR3 1420 multilabel counter (Perkin Elmer Life Sciences, Mass.).
(§2) Neutralization of infectivity was performed as described previously (Trkola et al., 1998). The pseudovirions were incubated with an equal volume of various MAbs, CD4-IgG2, or T-20 for 1 hour at 37° C. before the residual infectivity was determined using U87.CD4.CCR5 cells as described above. The concentration of each inhibitor was expressed as the amount present after the inhibitor-virus mixture was added to the cells. The data were analyzed by non-linear regression (variable-slope sigmoidal dose response) to calculate the inhibitor concentrations that caused 50% reductions in luciferase expression (IC50), using the GraphPad Prism 4 software (maximal viral production in the absence of inhibitor was designated as 100%).

[2] = tested on: JR-FL WT Env-pseudotyped virus; assay type: cell-based, HIV-1 JR-FL
Procedure: as §1, §2

[3] = Tween 20 aggregate conversion experiments (BN-PAGE); assay type: physicochemical; conditions: Tween 20 0.05%, 10 minutes, room temperature
Procedure: Tween® 20 Dose effect: 1 ug of purified KNH1144 SOSIP R6 trimer was incubated with varying concentrations of Tween® 20 (polyoxyethylene sorbitan monolaurate) ranging from 0 to 0.0001% (v/v) and incubated for 1 hour at room temperature. Following incubation, samples were analyzed by BN-PAGE as described above.
Kinetics of Tween® 20 effect: To ascertain the early kinetics of the Tween® 20 effect on aggregate, 1 ug of purified KNH1144 SOSIP R6 trimer was incubated with Tween® 20 at a final concentration of 0.05% (v/v) for 5 minutes and for 10 minutes. A no-detergent control was included separately for each timepoint.
Temperature dependance on Tween® 20 effect: To determine if temperature affected the ability of Tween® 20 to recover trimers from aggregates (i.e., collapse aggregate into trimer), 1 ug of purified KNH1144 SOSIP R6 trimer was incubated with Tween® 20 to a final concentration of 0.05% (v/v) at 0° C. […] Following the incubation, samples were analyzed by BN-PAGE and Coomassie staining.
Following the treatment, samples were analyzed by BN-PAGE and Coomassie staining.
Tween® 20 effect on -2-macroglogulin (a2M): 0.5 ug of purified -2-macroglobulin was either untreated or treated with Tween® 20 at a final concentration of 0.05% for 10 minutes at room temperature. Reactions were analyzed via BN-PAGE, followed by Coomassie staining.

[4] = DEAE anion exchange chromatography of Tween 20-treated trimers; assay type: physicochemical; conditions: Tween 20 treated (0.05%), TN-75 buffer
Procedure: Purified KNH1144 SOSIP R6 gp140 trimers, treated either with or without 0.05% Tween® 20 (final), containing a2M contaminant in TN-75 buffer was applied over 1 ml DEAE HiTrap FF column (equilibrated in TN-75) at 0.25 ml/min at RT and flow-through (FT) fractions were collected. Following sample loading, the column was washed with TN-75 at 0.5 ml/min and wash fractions were collected. Finally, the column was eluted with TN-300 and equal amounts from each fraction were analyzed via BN-PAGE, followed by Coomassie G-250 staining.

| Substance | IC50 [1] [nM] | IC50 against WT Env-pseudotyped virus greater than against the mutant [2] [fold] | IC50 ([2]; U87.CD4.CCR5 cells, in nM for T-20) [nM] | effect of Tween 20 on BN-PAGE migration [3] | binding to DEAE column [4] |
| --- | --- | --- | --- | --- | --- |
| enfuvirtide | 11.5 | 2 | 24.2 |  |  |
| a2M: acidic 726 kDa tetrameric glycoprotein, contaminant/control protein |  |  |  | No change was observed in the migratory pattern | bound to the DEAE column |

— patent publication US7939083B2, “Soluble, stabilized, proteolytically cleaved, trimeric HIV-1 gp140 proteins comprising modifications in the N-terminus of the gp41 ectodomain” (Progenics Pharmaceuticals Inc., priority 2006, dated 2011)
